In patent publication US9120795B2, “Crystalline form of a β-lactamase inhibitor” (Cubist Pharmaceuticals, Inc., priority 2013, dated 2015):

How the values were obtained:
[1] = system: Panel of Isogenic and Clinical Strains Expressing β-Lactamases; assay: Standard BLI potentiation MIC assay, whole panel; format: cell-based
Description: (§1) The experimental protocol was performed according to Clinical and Laboratory Standards Institute (CLSI) guidelines with modifications as described below (CLSI guidelines can be derived from the CLSI document M07-A9 published in January 2012: “Methods for Dilution Antimicrobial Susceptibility Tests for Bacteria That Grow Aerobically; Approved Standard-Ninth Edition”).
(§2) To prepare for MIC testing, frozen glycerol stocks of clinical isolates (Klebsiella pneumoniae, Eschericia coli, Enterobacter spp, Citrobacter spp, or Pseudomonas aeruginosa) were used to streak for isolated colonies on rich, non-selective, tryptic soy agar containing 5% sheep's blood (TSAB). Frozen glycerol stocks of laboratory engineered, isogenic E. coli strains, which contain cloned β-lactamase expressing plasmids were used to streak for isolated colonies on rich, selective LB agar supplemented with 25 μg/mL tetracycline to maintain the plasmid. All strains were incubated at 37° C. for 18-24 hrs. […]
(§3) Plates were incubated for 18-20 hours at 37° C. with aeration (200 rpm). Following incubation, growth was confirmed visually placing plates over a viewing apparatus (stand with a mirror underneath) and then OD600 was measured using a SpectraMax 340PC384 plate reader (Molecular Devices, Sunnyvale, Calif.). Growth was defined as turbidity that could be detected with the naked eye or achieving minimum OD600 of 0.1. […]

[2] = Solid form stability at ambient conditions, XRPD; format: physicochemical
Description: X-Ray Powder Diffraction patterns were collected on a Bruker D8 diffractometer using Cu Kα radiation (40 kV, 40 mA), 0-20 goniometer, and divergence of V4 and receiving slits, a Ge monochromator and a Lynxeye detector. The instrument is performance checked using a certified Corundum standard (NIST 1976). The software used for data collection was Diffrac Plus XRD Commander v2.6.1 and the data were analysed and presented using Diffrac Plus EVA v13.0.0.2 or v15.0.0.0. Samples were run under ambient conditions as flat plate specimens using powder as received. The sample was gently packed into a cavity cut into polished, zero-background (510) silicon wafer. The sample was rotated in its own plane during analysis. The details of the data collection are: angular range: 2 to 42 °2θ; step size: 0.05 °2θ; collection time: 0.5 s/step. Amorphous material (˜60 mg) was generated as in Procedure 1. The amorphous material was suspended in different solvent systems (3 mL) at 50° C. A sample was withdrawn after 3 h and 24 h. The final product was filtered after 48 h and analysed by XRPD. The solids isolated were re-analysed again by XRPD after few days at ambient conditions (˜25° C. and ˜40% RH).

Cfr.568 (AmpC, clinical) = assay: Standard BLI potentiation MIC assay; format: cell-based, Citrobacter spp; settings: Citrobacter, read-out: MIC of β-lactam with BLI
Description: as §1, §2, §3

Ecl.569 (AmpC, clinical) = assay: Standard BLI potentiation MIC assay; format: cell-based, Enterobacter spp; settings: Enterobacter, read-out: MIC of β-lactam with BLI
Description: as §1, §2, §3

[3] = system: Eco.2491 (CMY-2, clinical); assay: Standard BLI potentiation MIC assay; format: cell-based, Eschericia coli; settings: read-out: MIC of β-lactam with BLI
Description: as §1
(§4) To prepare for MIC testing, frozen glycerol stocks of clinical isolates (Klebsiella pneumoniae, Eschericia coli, Enterobacter spp, Citrobacter spp, or Pseudomonas aeruginosa) were used to streak for isolated colonies on rich, non-selective, tryptic soy agar containing 5% sheep's blood (TSAB). Frozen glycerol stocks of laboratory engineered, isogenic E. coli strains, which contain cloned β-lactamase expressing plasmids were used to streak for isolated colonies on rich, selective LB agar supplemented with 25 μg/mL tetracycline to maintain the plasmid. All strains were incubated at 37° C. for 18-24 hrs.
(§5) On the day of testing, primary cultures were started by scraping off 5-10 colonies from the TSAB plates containing clinical strains or the tetracycline supplemented LB plates containing engineered strains. The clinical strain material was suspended in ˜5 mL of cation adjusted Mueller Hinton Broth (CAMHB) in 14 mL culture tubes. The engineered strain material was suspended in CAMHB (supplemented with 25 μg/mL tetracycline) in 14 mL culture tubes. All strains were incubated at 37° C. with aeration (200 rpm) for ˜2 hrs until the optical density at 600 nm (OD600) was ≧0.1.
(§6) The two compound components of the assay were each diluted in CAMHB and added to the 96-well broth microdilution assay plates. 50 μL of the β-lactam was added to each well of the assay plate in 2-fold dilutions with final concentrations ranging from 128 to 0.13 μg/mL. 25 μL of the BLI compound was added to all wells in the broth microdilution plates at a final concentration of 4 μg/mL. Inoculum cultures were prepared by standardizing the primary cultures to OD600=0.1 and then adding 20 μL of the adjusted primary culture per 1 mL CAMHB for clinical strains or CAMHB (supplemented with tetracycline at 100 μg/mL) for engineered strains, so that the final inoculum density was ˜10^5 colony forming units per milliliter. Diluted inoculum cultures were used to inoculate 25 μL per well in 96-well broth microdilution assay plates. The final volume of each well was 100 μL and contained a β-lactam at different concentrations, a BLlcompound at 4 μg/mL concentration, the bacterial culture at an OD600 of approximately 0.001 and when necessary tetracycline at 25 μg/mL.
(§7) Plates were incubated for 18-20 hours at 37° C. with aeration (200 rpm). Following incubation, growth was confirmed visually placing plates over a viewing apparatus (stand with a mirror underneath) and then OD600 was measured using a SpectraMax 340PC384 plate reader (Molecular Devices, Sunnyvale, Calif.). Growth was defined as turbidity that could be detected with the naked eye or achieving minimum OD600 of 0.1. MIC values were defined as the lowest concentration producing no visible turbidity.

Eco.2711 (KPC, clinical) = assay: Standard BLI potentiation MIC assay; format: cell-based, Eschericia coli; settings: read-out: MIC of β-lactam with BLI
Description: as §1, §4, §5, §6, §7

[4] = system: Eco.2840 (KPC-4, isogenic); assay: Standard BLI potentiation MIC assay; format: cell-based, Eschericia coli; settings: read-out: MIC of β-lactam with BLI
Description: as §1, §4, §5, §6, §7

[5] = system: Eco.2843 (DHA-1, isogenic); assay: Standard BLI potentiation MIC assay; format: cell-based, Eschericia coli; settings: read-out: MIC of β-lactam with BLI
Description: as §1, §4, §5, §6, §7

[6] = system: Eco.2902 (Aba-ADC-33, isogenic); assay: Standard BLI potentiation MIC assay; format: cell-based, Eschericia coli; settings: read-out: MIC of β-lactam with BLI
Description: as §1, §4, §5, §6, §7

[7] = system: Eco.2845 (OXA-15, isogenic); assay: Standard BLI potentiation MIC assay; format: cell-based, Eschericia coli; settings: read-out: MIC of β-lactam with BLI
Description: as §1, §4, §5, §6, §7

[8] = system: Eco.2806 (KPC-2, isogenic); assay: Standard BLI potentiation MIC assay; format: cell-based, Eschericia coli; settings: read-out: MIC of β-lactam with BLI
Description: as §1, §4, §5, §6, §7

[9] = system: Eco.2781 (KPC-2, TEM+, clinical); assay: Standard BLI potentiation MIC assay; format: cell-based, Eschericia coli; settings: read-out: MIC of β-lactam with BLI
Description: as §1, §4, §5, §6, §7

SMILES: O=C1N2C[C@@H](CC[C@H]2c2nnco2)N1OS(=O)(=O)[O-].[Na+] [Hydrate 1, sodium (2S,5R)-2-(1,3,4-oxadiazol-2-yl)-7-oxo-1,6-diazabicyclo[3.2.1]octan-6-yl sulfate]
- MIC50 [1]: 1 to 2 µg/mL
- MIC90 [1]: 1 to 2 µg/mL
- change of crystal form on storage ([2]; 25° C. at 40% relative humidity over 2 days (FIG. 2)): little to no change
- relative stability among the crystalline forms ([2]; ambient conditions (25° C. and 40% RH)): most stable crystalline form
- stability of the form (Summary of Forms, Description) ([2]; sulfate): Stable tri-hydrate
- MIC (Cfr.568 (AmpC, clinical)): 1 to 2 µg/mL
- MIC (Ecl.569 (AmpC, clinical)): 0.25 to 0.5 µg/mL
- MIC [3]: 0.25 to 0.5 µg/mL
- MIC (Eco.2711 (KPC, clinical)): 0.25 to 0.5 µg/mL
- MIC [4]: 1 to 2 µg/mL
- MIC [5]: 0.25 to 0.5 µg/mL
- MIC [6]: 1 to 2 µg/mL
- MIC [7]: 1 to 2 µg/mL
- MIC [8]: 0.25 to 0.5 µg/mL
- MIC [9]: 0.25 to 0.5 µg/mL
